Experimental data as given in article PMC6499206, “Quantification of Volatile Metabolites Derived From Garlic (Allium sativum) in Human Urine” (Frontiers in Nutrition, 2019).

Assay: Quantification of garlic-derived metabolites in human urine after ingestion of 3 g raw garlic (SIDA, SAFE, HRGC-MS / HRGC-GC-MS)
Format: in vivo
Details: 3 g raw garlic
Source text: Human urine samples were obtained from 18 volunteers (age 22–38 years, mean 27 years; 11 females, 7 males); thereby, one volunteer conducted the whole experimental series twice. At the time of examination, volunteers reported no known illness that might have potentially influenced the metabolism or the excretion of urine. The test persons were instructed to avoid foods that were rich in sulfur-containing substances at the testing day as well as 2 days preceding the testing day, namely garlic, onion, wild garlic, chives, cabbage, and leek, and were only allowed to consume the garlic sample provided in the course of the experiments. Additionally, subjects were asked to keep records of the food (including food supplements) and beverages they consumed during these 3 testing days. Generally, the overall panelists' requirements were in accordance with our previous studies ([5], [16]).
On the sampling day, the outer garlic cloves of a whole garlic bulb were peeled and cut into ~3 mm cubes by using a garlic cutter (Genius GmbH, Limburg/Lahn, Germany). Subsequently these cubes were thoroughly mixed and aliquoted into 3 g portions. Three to four test persons conducted the experiment at the same day. Each test person was asked to ingest a garlic portion of 3 g. In total, eight consecutive urine samples were provided by each test person, comprising one whole urine set. The samples were collected in sterile brown glass bottles, with sampling times as follows: one sample was provided directly prior to garlic consumption. The series of the second to eighth sample was then obtained at about 0.5, 1, 2, 4, 6, 8, and 24 h after garlic consumption, respectively. Between the first urine sample (prior to garlic consumption) and the seventh urine sample (8 h after garlic consumption) test persons only spent urine at the specific time points mentioned before. Another sample was provided at the next morning (24 h after garlic consumption). Between the samples provided 8 and 24 h after garlic consumption no urine was collected. All samples were immediately placed into a −80°C freezer and were kept frozen until further analysis.
The samples of each set were termed according to their sampling time. The following list provides the time intervals that are related to the respective sample name: • - pre: before garlic consumption • - 0.5 h post: 0.4–0.8 h after garlic consumption • - 1 h post: 0.9–1.3 h after garlic consumption • - 2 h post: 1.8 h−2.2 h after garlic consumption • - 4 h post: 3.8–4.4 h after garlic consumption • - 6 h post: 5.8–6.4 h after garlic consumption • - 8 h post: 7.8–8.4 h after garlic consumption • - 24 h post: 23.8–25.6 h after garlic consumption
A creatinine kit (Labor+Technik Eberhard Lehmann GmbH, Berlin, Germany) was used to determine the creatinine content in each urine sample. The determination principle of this kit is based on the reaction of creatinine with picric acid under basic conditions (Jaffé reaction). The formed complex was detected photometrically at a wavelength of 492 nm.
For quantification purposes, the deuterated standards ^2H3-AMS, ^2H3-AMSO, and ^2H3-AMSO2 were added to the sample and stirred for 10 min. Subsequently, DCM was added in a ratio of 1:2 (DCM/human urine; v/v) and this solution was stirred for further 30 min at room temperature. To isolate the volatile fraction from the urine samples we then applied SAFE-distillation ([17]), thereby distilling the respective samples at 50°C. After completion of the distillation process, 10 mL of DCM were applied in each case to rinse the SAFE apparatus and to ensure complete transition of the volatile compounds. This process was repeated with another 10 mL of DCM. After thawing, the obtained aqueous distillate phase was extracted three times with 25 mL DCM. The organic phases were combined, dried over anhydrous Na2SO4 and concentrated to a total volume of 100 μL by means of Vigreux distillation and subsequent micro-distillation at 50°C. […]

C=CCSC [AMS, allyl methyl sulfide]
metabolite concentration in urine, creatinine-normalized (U VII, 1 h post (1.08 h)): 0.8 µg/mmol creatinine
metabolite concentration in urine (U VII, 2 h post (2.00 h)): 0.8 µg/kg
metabolite concentration in urine, creatinine-normalized (U VII, 2 h post (2.00 h)): 0.8 µg/mmol creatinine
metabolite concentration in urine (U VII, 4 h post (4.00 h)): 0.6 µg/kg
metabolite concentration in urine, creatinine-normalized (U VII, 4 h post (4.00 h)): 0.3 µg/mmol creatinine
metabolite concentration in urine (U VII, 6 h post (6.00 h)): 0.7 µg/kg
metabolite concentration in urine, creatinine-normalized (U VII, 6 h post (6.00 h)): 0.2 µg/mmol creatinine
metabolite concentration in urine (U VII, 8 h post (8.00 h)): 0.4 µg/kg
metabolite concentration in urine, creatinine-normalized (U VII, 8 h post (8.00 h)): 0.2 µg/mmol creatinine
metabolite concentration in urine (U VII, 24 h post (24.00 h)): traces^1
metabolite concentration in urine, creatinine-normalized (U VII, 24 h post (24.00 h)): traces^1
metabolite concentration in urine (U VII, pre (-0.25 h)): traces^1
metabolite concentration in urine, creatinine-normalized (U VII, pre (-0.25 h)): traces^1
metabolite concentration in urine (U VIII, 0.5 h post (0.52 h)): 1.9 µg/kg
metabolite concentration in urine, creatinine-normalized (U VIII, 0.5 h post (0.52 h)): 2.3 µg/mmol creatinine
metabolite concentration in urine (U VIII, 1 h post (1.08 h)): 1.9 µg/kg
metabolite concentration in urine, creatinine-normalized (U VIII, 1 h post (1.08 h)): 1.1 µg/mmol creatinine
metabolite concentration in urine (U VIII, 2 h post (2.08 h)): 1.5 µg/kg
metabolite concentration in urine, creatinine-normalized (U VIII, 2 h post (2.08 h)): 1.4 µg/mmol creatinine
metabolite concentration in urine (U VIII, 4 h post (4.07 h)): 1.6 µg/kg
metabolite concentration in urine, creatinine-normalized (U VIII, 4 h post (4.07 h)): 0.7 µg/mmol creatinine
metabolite concentration in urine (U VIII, 6 h post (6.08 h)): 1.3 µg/kg
metabolite concentration in urine, creatinine-normalized (U VIII, 6 h post (6.08 h)): 0.3 µg/mmol creatinine
metabolite concentration in urine (U VIII, 8 h post (7.90 h)): 0.8 µg/kg
metabolite concentration in urine, creatinine-normalized (U VIII, 8 h post (7.90 h)): 0.3 µg/mmol creatinine
metabolite concentration in urine (U VIII, 24 h post (23.83 h)): 0.3 µg/kg
metabolite concentration in urine, creatinine-normalized (U VIII, 24 h post (23.83 h)): 0.1 µg/mmol creatinine
metabolite concentration in urine (U VIII, pre (-0.33 h)): 0.5 µg/kg
metabolite concentration in urine, creatinine-normalized (U VIII, pre (-0.33 h)): 0.1 µg/mmol creatinine
metabolite concentration in urine (U X, 0.5 h post (0.53 h)): 0.4 µg/kg
metabolite concentration in urine, creatinine-normalized (U X, 0.5 h post (0.53 h)): 0.2 µg/mmol creatinine
metabolite concentration in urine (U X, 1 h post (1.03 h)): 0.4 µg/kg
metabolite concentration in urine, creatinine-normalized (U X, 1 h post (1.03 h)): 0.5 µg/mmol creatinine
metabolite concentration in urine (U X, 2 h post (2.03 h)): 0.3 µg/kg
metabolite concentration in urine, creatinine-normalized (U X, 2 h post (2.03 h)): 0.5 µg/mmol creatinine
metabolite concentration in urine (U X, 4 h post (3.85 h)): 0.4 µg/kg
metabolite concentration in urine, creatinine-normalized (U X, 4 h post (3.85 h)): 0.3 µg/mmol creatinine
metabolite concentration in urine (U X, 6 h post (5.80 h)): 0.5 µg/kg
metabolite concentration in urine, creatinine-normalized (U X, 6 h post (5.80 h)): 0.2 µg/mmol creatinine
metabolite concentration in urine (U X, 8 h post (7.75 h)): 0.3 µg/kg
metabolite concentration in urine, creatinine-normalized (U X, 8 h post (7.75 h)): 0.1 µg/mmol creatinine
metabolite concentration in urine (U X, 24 h post (23.97 h)): 0.2 µg/kg
metabolite concentration in urine, creatinine-normalized (U X, 24 h post (23.97 h)): 0.02 µg/mmol creatinine
metabolite concentration in urine (U X, pre (-0.07 h)): < LOD^1
metabolite concentration in urine, creatinine-normalized (U X, pre (-0.07 h)): < LOD^1
metabolite concentration in urine (U XI, 0.5 h post (0.50 h)): 0.4 µg/kg
metabolite concentration in urine, creatinine-normalized (U XI, 0.5 h post (0.50 h)): 0.4 µg/mmol creatinine
metabolite concentration in urine (U XI, 1 h post (1.02 h)): 0.6 µg/kg
metabolite concentration in urine, creatinine-normalized (U XI, 1 h post (1.02 h)): 0.7 µg/mmol creatinine
metabolite concentration in urine (U XI, 2 h post (2.00 h)): 0.5 µg/kg
metabolite concentration in urine, creatinine-normalized (U XI, 2 h post (2.00 h)): 0.7 µg/mmol creatinine
metabolite concentration in urine (U XI, pre (-0.08 h)): 0.8 µg/kg
metabolite concentration in urine, creatinine-normalized (U XI, pre (-0.08 h)): 0.2 µg/mmol creatinine
metabolite concentration in urine (U XII, 0.5 h post (0.48 h)): 0.3 µg/kg
metabolite concentration in urine, creatinine-normalized (U XII, 0.5 h post (0.48 h)): 0.04 µg/mmol creatinine
metabolite concentration in urine (U XII, 1 h post (1.03 h)): 0.3 µg/kg
metabolite concentration in urine, creatinine-normalized (U XII, 1 h post (1.03 h)): 0.3 µg/mmol creatinine
metabolite concentration in urine (U XII, 2 h post (1.85 h)): 0.9 µg/kg
